Key:
[1] = tested on: T-type calcium channels (CaV3.1, CaV3.2, CaV3.3) mRNA; test: Quantitative PCR of T-type Ca2+ channel expression in the hippocampus of post-SE rats; format: in vivo, rat; details: 9 weeks after treatment ended
Procedure: RNA was extracted using the RNeasy Mini Kit (QIAGEN), DNA elimination columns were used to remove any genomic DNA contamination in accordance with the manufacturer's protocol. RNA concentration and purity was determined using spectrophotometric readings with the NanoDrop 3000 spectrophotometer (NanoDrop Technologies). 1 μg RNA was reverse transcribed to cDNA using the Omniscript RT Kit (QIAGEN) following the manufacturer's protocol. T-type Ca^2+ channel expression was assessed using quantitative polymerase chain reaction (qPCR). Each 10 μl reaction volume consisted in 25 ng of cDNA, 5 μl of TaqMan Universal PCR Master Mix 2× and custom designed TaqMan using catalogued 20× Taqman gene expression assays for CaV3.1 (Assay ID Rn00581051_m1, Applied Biosystems), CaV3.2 (Assay ID Rn01460348_m1, Applied Biosystems), CaV3.3 (Assay ID Rn01505208_m1, Applied Biosystems). Relative mRNA expression of the CaV3.1, CaV3.2 and CaV3.3 were compared to the geometric average of the mRNA levels of the housekeeping genes Rplp1 (Rn03467157_gH), Rpl13a (Rn00821946_g1) and Ywhaz (Assay ID: Rn00755072_m1). Analysis was performed using the ΔΔCT method. The average of the relative expression levels was compared between the different treatment groups.

[2] = tested on: GAERS (genetic rat model of GGE with absence seizures); test: Systemic administration in GAERS, EEG spike-and-wave discharges; format: in vivo; details: 30 mg/kg intraperitoneal; shift from 8 Hz with ethosuximide 100 mg/kg and vehicle
Procedure: In vivo anti-seizure activity of Z941 and Z944 was assessed in eight female epileptic GAERS (180 to 250 g and 18 to 26 weeks). Rats were implanted with extradural recording electrodes. EEG data were acquired at a sampling rate of 256 Hz unfiltered using Compumedics ProFusion digital EEG acquisition software. After 60-min habituation, rats received intraperitoneal injections of drug, and after a further 15 min, the EEG was acquired for 120 min—the test period. […] Over a 5-week period, each rat received all treatments (crossover design) in a randomized manner with a 48-hour washout period between dosing of test compound, control vehicle, and positive control articles. […] Clinical observations of neurotoxic adverse effects were assessed every 15 min throughout the 120-min test period. These were quantified according to an ordinal scale of 0 to 4: 0, no sedation, normal movement; 1, slight sedation, slow movement but alert when startled; 2, mildly sedate, reduced struggle to restraint; 3, sedate, not moving in cage, but does respond to provocation; 4, very sedate, catatonic and unable to stand when provoked. The eight scores (taken for one experiment per rat) were then averaged, and group means were calculated for each treatment. Animals were also monitored daily for general health throughout the study period (that is, weight gain and fur condition). […]

[3] = tested on: GAERS nRT T-type Ca2+ channel currents (mixed CaV3.2/CaV3.3 current); test: Thalamic slice whole-cell voltage-clamp recordings of nRT T-type Ca2+ channel currents; format: cell-based, rat; parameters: dose or concentration left out as unconfirmed; details: and wash off

Compound: CC(C)(C)NC(=O)CN1CCC(CNC(=O)c2cc(F)cc(Cl)c2)CC1 [Z944]
- mRNA expression of T-type calcium channels in the hippocampus [1]: Reduced mRNA Expression
- peak cycle frequency power during seizure activity (FFT) [2]: 6.5 Hz
- reversibility of inhibition of GAERS nRT T-type Ca2+ channel currents [3]: nonreversible inhibition
